This is an account of results in patent US20250346574A1, “PYRIDINYL SUBSTITUTED OXOISOINDOLINE COMPOUNDS FOR THE TREATMENT OF CANCER” (Bristol-Myers Squibb Company, priority 2021, published 2025).

The term DC50 denotes the midpoint of the concentration-degradation curve.

Chain of Helios (Q9UKS7 whole entry): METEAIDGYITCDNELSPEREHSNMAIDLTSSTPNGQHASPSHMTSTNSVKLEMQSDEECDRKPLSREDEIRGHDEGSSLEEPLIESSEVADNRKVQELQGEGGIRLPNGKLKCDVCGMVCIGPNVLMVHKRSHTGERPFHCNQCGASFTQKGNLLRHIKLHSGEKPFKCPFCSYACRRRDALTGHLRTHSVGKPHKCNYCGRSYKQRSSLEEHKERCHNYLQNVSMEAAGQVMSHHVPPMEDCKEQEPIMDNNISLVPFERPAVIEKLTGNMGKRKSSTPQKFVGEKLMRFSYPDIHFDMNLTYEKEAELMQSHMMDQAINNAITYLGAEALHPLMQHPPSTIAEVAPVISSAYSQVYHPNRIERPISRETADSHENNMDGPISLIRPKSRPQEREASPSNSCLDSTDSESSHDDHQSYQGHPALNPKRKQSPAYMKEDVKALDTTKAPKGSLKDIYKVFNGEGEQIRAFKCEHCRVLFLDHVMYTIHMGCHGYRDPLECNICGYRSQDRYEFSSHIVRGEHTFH
Chain of Helios (Q96SW2 whole entry): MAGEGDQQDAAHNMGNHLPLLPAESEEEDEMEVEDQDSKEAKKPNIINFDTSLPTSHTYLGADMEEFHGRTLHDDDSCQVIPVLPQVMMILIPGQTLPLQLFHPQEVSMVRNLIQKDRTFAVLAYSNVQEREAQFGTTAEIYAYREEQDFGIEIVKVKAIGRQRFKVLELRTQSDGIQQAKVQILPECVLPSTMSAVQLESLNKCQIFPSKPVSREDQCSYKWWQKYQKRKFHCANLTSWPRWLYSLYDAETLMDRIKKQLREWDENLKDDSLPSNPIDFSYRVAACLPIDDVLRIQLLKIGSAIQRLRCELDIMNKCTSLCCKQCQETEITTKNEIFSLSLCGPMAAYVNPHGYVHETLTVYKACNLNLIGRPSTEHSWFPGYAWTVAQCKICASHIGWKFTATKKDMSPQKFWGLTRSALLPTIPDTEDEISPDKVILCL
Chain of Helios (Q16531 whole entry partner): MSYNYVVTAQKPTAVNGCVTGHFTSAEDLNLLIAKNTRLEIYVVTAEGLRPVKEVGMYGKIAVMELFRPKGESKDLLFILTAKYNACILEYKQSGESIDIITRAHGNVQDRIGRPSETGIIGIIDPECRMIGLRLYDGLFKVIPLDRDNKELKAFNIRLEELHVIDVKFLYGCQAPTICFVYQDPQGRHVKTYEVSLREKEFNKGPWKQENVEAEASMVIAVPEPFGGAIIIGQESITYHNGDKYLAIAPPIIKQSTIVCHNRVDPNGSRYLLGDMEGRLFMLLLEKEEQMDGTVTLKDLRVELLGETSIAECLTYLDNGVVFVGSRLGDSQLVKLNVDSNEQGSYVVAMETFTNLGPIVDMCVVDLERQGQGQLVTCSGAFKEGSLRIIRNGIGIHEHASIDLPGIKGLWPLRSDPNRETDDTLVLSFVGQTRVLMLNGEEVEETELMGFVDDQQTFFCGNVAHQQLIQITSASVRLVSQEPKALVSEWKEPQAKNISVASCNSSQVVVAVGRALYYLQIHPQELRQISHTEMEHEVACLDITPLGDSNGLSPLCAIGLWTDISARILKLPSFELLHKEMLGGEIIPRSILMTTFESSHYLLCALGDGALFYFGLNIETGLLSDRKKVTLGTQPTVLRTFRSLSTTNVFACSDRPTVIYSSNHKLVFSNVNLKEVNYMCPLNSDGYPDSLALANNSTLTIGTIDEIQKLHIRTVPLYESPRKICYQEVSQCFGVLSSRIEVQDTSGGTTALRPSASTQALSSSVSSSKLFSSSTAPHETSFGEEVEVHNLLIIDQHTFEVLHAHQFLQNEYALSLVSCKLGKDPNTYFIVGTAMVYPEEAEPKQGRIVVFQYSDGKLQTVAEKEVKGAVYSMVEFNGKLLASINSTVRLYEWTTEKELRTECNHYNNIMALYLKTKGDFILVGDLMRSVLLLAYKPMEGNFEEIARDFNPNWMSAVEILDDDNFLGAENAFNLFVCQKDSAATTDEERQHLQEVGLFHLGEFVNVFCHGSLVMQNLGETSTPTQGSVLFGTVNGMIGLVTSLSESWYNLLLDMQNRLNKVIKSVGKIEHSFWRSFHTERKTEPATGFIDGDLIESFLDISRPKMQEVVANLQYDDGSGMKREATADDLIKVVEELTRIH

The test concerns the target Helios (Homo sapiens, UniProt Q96SW2+Q9UKS7). Nature of the test: Helios Human T Regulatory Cells Degradation Assay. Format: cell-based. On the set-up: fluorescently labelled antibodies against Helios in 1× Permeabilization buffer; endogenous in cells; host or cells: cryopreserved human T regulatory cells. Particulars: cryopreserved human T regulatory cells, incubated 20 hours, Helios-APC antibody staining, flow cytometry; read-out: hTreg Helios DC50. How it is done: Cryopreserved human T regulatory cells were thawed in RPMI+10% FBS+20 ng/mL IL-2. After being spun at 1200 rpm for 5 mins, the cells were resuspended in RPMI+10% FBS+20 ng/mL and rested at 37° C. with 5% CO2 for 3 hours. […] Cell cultures were incubated for 20 hours at 37° C. and 5% CO2. In order to facilitate analysis, cell cultures were spun down at 1200 rpm for 5 minutes and the supernatant was discarded using an EL406 plate washer. After washing three times with 70 μL PBS, cell pellets were resuspended in 50 μL of near IR viability staining solution (Life Technologies, Cat #L34975) and incubated for 30 minutes on ice protected from light. Cells were washed three times with 70 μL PBS+0.5% BSA using an EL406 plate washer. […] Subsequently, 30 μL of 1× Permeabilization buffer was added prior to centrifuging the cells and discarding the supernatant. Stained cells were resuspended in 30 μL of flow cytometry staining buffer (PBS+0.5% BSA) and analyzed using an Intellicyt Ique Plus flow cytometer.
Regarding `C[C@@H]1c2c(ccc(-c3cc(CN4CCC(O)(c5ccccc5)C4)ccn3)c2F)C(=O)N1[C@H]1CCC(=O)NC1=O` (stereo partly drawn) [Example 139, (3S)-3-((3R)-4-fluoro-5-(4-((3-hydroxy-3-phenylpyrrolidin-1-yl)methyl)pyridin-2-yl)-3-methyl-1-oxoisoindolin-2-yl)piperidine-2,6-dione], the DC50 stood at 0.367 µM.

On to `C[C@@H]1c2c(ccc(-c3cc(CN4CCC(C)(O)C4)ccn3)c2F)C(=O)N1[C@H]1CCC(=O)NC1=O` (stereo partly drawn) [Example 140, (3S)-3-((3R)-4-fluoro-5-(4-((3-hydroxy-3-methylpyrrolidin-1-yl)methyl)pyridin-2-yl)-3-methyl-1-oxoisoindolin-2-yl)piperidine-2,6-dione], for which the DC50 came out at 0.0791 µM.

Regarding `C[C@@H]1c2c(ccc(-c3cc(CN4CC[C@@H](Oc5ccccc5)C4)ccn3)c2F)C(=O)N1[C@H]1CCC(=O)NC1=O` [Example 141, (S)-3-((R)-4-fluoro-3-methyl-1-oxo-5-(4-(((R)-3-phenoxypyrrolidin-1-yl)methyl)pyridin-2-yl)isoindolin-2-yl)piperidine-2,6-dione], the DC50 was at least 10 µM.

For `C[C@@H]1c2c(ccc(-c3cc(CN4CC[C@H](F)C4)ccn3)c2F)C(=O)N1[C@H]1CCC(=O)NC1=O` [Example 142], the DC50 worked out at 0.706 µM.

Consider `O=C1CC[C@H](N2Cc3cc(-c4cc(CN5CC6(CC(O)C6)C5)ccn4)ccc3C2=O)C(=O)N1` [Example 145, (S)-3-(5-(4-((6-hydroxy-2-azaspiro[3.3]heptan-2-yl)methyl)pyridin-2-yl)-1-oxoisoindolin-2-yl)piperidine-2,6-dione], for which the DC50 worked out at 0.0007 µM.

On to `O=C1CC[C@H](N2Cc3cc(-c4cc(CN5CC6CC(O)CC6C5)ccn4)ccc3C2=O)C(=O)N1` (stereo partly drawn) [Example 146, (3S)-3-(5-(4-((5-hydroxyhexahydrocyclopenta[c]pyrrol-2(1H)-yl)methyl)pyridin-2-yl)-1-oxoisoindolin-2-yl)piperidine-2,6-dione], for which the DC50 was 0.003 µM.

Take `CC1=CC2CN(Cc3ccnc(-c4ccc5c(c4)CN([C@H]4CCC(=O)NC4=O)C5=O)c3)CC2C1` (stereo partly drawn) [Example 148, (3S)-3-(5-(4-((5-methyl-3,3a,4,6a-tetrahydrocyclopenta[c]pyrrol-2(1H)-yl)methyl)pyridin-2-yl)-1-oxoisoindolin-2-yl)piperidine-2,6-dione]: the DC50 turned out to be 0.0037 µM.

`O=C1CC[C@H](N2Cc3cc(-c4nccc(CN5C[C@H]6CCC(O)C[C@H]6C5)c4F)ccc3C2=O)C(=O)N1` (stereo partly drawn) [Example 149, (3S)-3-(5-(3-fluoro-4-(((3aR,7aS)-5-hydroxyoctahydro-2H-isoindol-2-yl)methyl)pyridin-2-yl)-1-oxoisoindolin-2-yl)piperidine-2,6-dione]: the DC50 stood at 0.0067 µM.

Regarding `O=C1CC[C@H](N2Cc3cc(-c4nccc(CN5CCC6(CCNC6=O)CC5)c4F)ccc3C2=O)C(=O)N1` [Example 150, (S)-3-(5-(3-fluoro-4-((1-oxo-2,8-diazaspiro[4.5]decan-8-yl)methyl)pyridin-2-yl)-1-oxoisoindolin-2-yl)piperidine-2,6-dione], the DC50 is at least 10 µM.

As for `O=C1CC[C@H](N2Cc3cc(-c4nccc(CN5C[C@H]6COC[C@H]6C5)c4F)ccc3C2=O)C(=O)N1` [Example 151, (S)-3-(5-(3-fluoro-4-(((3aR,6aS)-tetrahydro-1H-furo[3,4-c]pyrrol-5(3H)-yl)methyl)pyridin-2-yl)-1-oxoisoindolin-2-yl)piperidine-2,6-dione], the DC50 came out at 0.167 µM.

As for `O=C1CC[C@H](N2Cc3cc(-c4cc(CN5C[C@H]6COC[C@H]6C5)ccn4)ccc3C2=O)C(=O)N1` [Example 152, (S)-3-(1-oxo-5-(4-(((3aR,6aS)-tetrahydro-1H-furo[3,4-c]pyrrol-5(3H)-yl)methyl)pyridin-2-yl)isoindolin-2-yl)piperidine-2,6-dione], the DC50 worked out at 0.0188 µM.

With `O=C1CC[C@H](N2Cc3cc(-c4nccc(CN5CC6(CC(O)C6)C5)c4F)ccc3C2=O)C(=O)N1` [Example 153, (S)-3-(5-(3-fluoro-4-((6-hydroxy-2-azaspiro[3.3]heptan-2-yl)methyl)pyridin-2-yl)-1-oxoisoindolin-2-yl)piperidine-2,6-dione], the DC50 worked out at 0.0153 µM.

In the case of `CC(C)(C)OC(=O)N1C[C@@H]2CN(Cc3ccnc(-c4ccc5c(c4)CN([C@H]4CCC(=O)NC4=O)C5=O)c3F)C[C@H]2C1` [Example 154, tert-butyl (3aS,6aS)-5-((2-(2-((S)-2,6-dioxopiperidin-3-yl)-1-oxoisoindolin-5-yl)-3-fluoropyridin-4-yl)methyl)hexahydropyrrolo[3,4-c]pyrrole-2(1H)-carboxylate], the DC50 amounted to 0.284 µM.

Take `O=C1CC[C@H](N2Cc3cc(-c4nccc(CN5CC6CCCC6C5)c4F)ccc3C2=O)C(=O)N1` (stereo partly drawn) [Example 155, (3S)-3-(5-(3-fluoro-4-((hexahydrocyclopenta[c]pyrrol-2(1H)-yl)methyl)pyridin-2-yl)-1-oxoisoindolin-2-yl)piperidine-2,6-dione]: the DC50 amounted to 0.0109 µM.

As to `CC(C)(C)OC(=O)N1C[C@H]2CN(Cc3ccnc(-c4ccc5c(c4)CN([C@H]4CCC(=O)NC4=O)C5=O)c3F)C[C@H]2C1` [Example 156, tert-butyl (3aR,6aS)-5-((2-(2-((S)-2,6-dioxopiperidin-3-yl)-1-oxoisoindolin-5-yl)-3-fluoropyridin-4-yl)methyl)hexahydropyrrolo[3,4-c]pyrrole-2(1H)-carboxylate], the DC50 is at least 10 µM.

`O=C1CCC(N2Cc3cc(-c4cc(CN5CC6(CCCCC6)C5)ccn4)ccc3C2=O)C(=O)N1` (stereo not drawn) [Example 157, 3-(5-(4-((2-azaspiro[3.5]nonan-2-yl)methyl)pyridin-2-yl)-1-oxoisoindolin-2-yl) piperidine-2,6-dione]: the DC50 came to 0.0025 µM.

In the case of `O=C1CC[C@H](N2Cc3cc(-c4cc(CN5CC6(CCOCC6)C5)ccn4)ccc3C2=O)C(=O)N1` [Example 158, (S)-3-(5-(4-((7-oxa-2-azaspiro[3.5]nonan-2-yl)methyl)pyridin-2-yl)-1-oxoisoindolin-2-yl)piperidine-2,6-dione], the DC50 stood at 0.0032 µM.

Turning to `O=C1CCC(N2Cc3cc(-c4cc(CN5CC(CNC(=O)c6ccccc6)C5)ccn4)ccc3C2=O)C(=O)N1` (stereo not drawn) [Example 159, N-((1-((2-(2-(2,6-dioxopiperidin-3-yl)-1-oxoisoindolin-5-yl)pyridin-4-yl)methyl)azetidin-3-yl)methyl)benzamide], the DC50 is 0.0146 µM.

Consider `CN(C(=O)c1ccccc1)C1CN(Cc2ccnc(-c3ccc4c(c3)CN([C@H]3CCC(=O)NC3=O)C4=O)c2)C1` [Example 160, (S)—N-(1-((2-(2-(2,6-dioxopiperidin-3-yl)-1-oxoisoindolin-5-yl)pyridin-4-yl)methyl)azetidin-3-yl)-N-methylbenzamide], for which the DC50 is 0.0619 µM.

`CN(C1CN(Cc2ccnc(-c3ccc4c(c3)CN([C@H]3CCC(=O)NC3=O)C4=O)c2)C1)S(C)(=O)=O` [Example 161, (S)—N-(1-((2-(2-(2,6-dioxopiperidin-3-yl)-1-oxoisoindolin-5-yl)pyridin-4-yl)methyl)azetidin-3-yl)-N-methylmethanesulfonamide]: the DC50 amounted to 0.223 µM.

As for `CN(C1CN(Cc2ccnc(-c3ccc4c(c3)CN([C@H]3CCC(=O)NC3=O)C4=O)c2)C1)S(=O)(=O)c1ccccc1` [Example 162, (S)—N-(1-((2-(2-(2,6-dioxopiperidin-3-yl)-1-oxoisoindolin-5-yl)pyridin-4-yl)methyl)azetidin-3-yl)-N-methylbenzenesulfonamide], the DC50 amounted to 0.0287 µM.

On to `CN(CC1CN(Cc2ccnc(-c3ccc4c(c3)CN([C@H]3CCC(=O)NC3=O)C4=O)c2)C1)C(=O)c1ccccc1` [Example 164, (S)—N-((1-((2-(2-(2,6-dioxopiperidin-3-yl)-1-oxoisoindolin-5-yl)pyridin-4-yl)methyl)azetidin-3-yl)methyl)-N-methylbenzamide], for which the DC50 was determined as 0.0159 µM.

As for `O=C1CCC(N2Cc3cc(-c4cc(Cn5cccn5)ccn4)ccc3C2=O)C(=O)N1` (stereo not drawn) [Example 165, 3-(5-(4-((1H-pyrazol-1-yl)methyl)pyridin-2-yl)-1-oxoisoindolin-2-yl)piperidine-2,6-dione], the DC50 is 0.178 µM.

As to `Cc1cnn(Cc2ccnc(-c3ccc4c(c3)CN([C@H]3CCC(=O)NC3=O)C4=O)c2)c1` [Example 166, (S)-3-(5-(4-((4-methyl-1H-pyrazol-1-yl)methyl)pyridin-2-yl)-1-oxoisoindolin-2-yl)piperidine-2,6-dione], the DC50 is at least 10 µM.

As for `Cc1cnc(-c2ccc3c(c2)CN(C2CCC(=O)NC2=O)C3=O)cc1CN1CCC(C(C)(C)O)CC1` (stereo not drawn) [Example 167, 3-(5-(4-((4-(2-hydroxypropan-2-yl)piperidin-1-yl)methyl)-5-methylpyridin-2-yl)-1-oxoisoindolin-2-yl)piperidine-2,6-dione], the DC50 stood at 0.001 µM.

For `Cc1cnc(-c2ccc3c(c2)CN(C2CCC(=O)NC2=O)C3=O)cc1CN1CC2(CCC2)C1` (stereo not drawn) [Example 168, 3-(5-(4-((2-azaspiro[3.3]heptan-2-yl)methyl)-5-methylpyridin-2-yl)-1-oxoisoindolin-2-yl)piperidine-2,6-dione], the DC50 is 0.0037 µM.

Take `Cc1cnc(-c2ccc3c(c2)CN(C2CCC(=O)NC2=O)C3=O)cc1CN1CCC(C2CC2)C1` (stereo not drawn) [Example 169, 3-(5-(4-((3-cyclopropylpyrrolidin-1-yl)methyl)-5-methylpyridin-2-yl)-1-oxoisoindolin-2-yl)piperidine-2,6-dione]: the 50% degradation concentration (DC50) was 0.004 µM.
